Assay results taken from US20230203021A1, “GLP-1 RECEPTOR AGONIST, PHARMACEUTICAL COMPOSITION COMPRISING SAME, AND METHOD FOR PREPARING SAME” (LG CHEM, LTD., priority 2020, published 2023).

Biological target: T1, hGLP-1R (Homo sapiens, UniProt P43220)
T1 construct: expressed in transfected cells; host or cells: CHO-K1
Assay: Measurement of activity of GLP-1R agonist (cell-based luciferase assay), CHO-K1/hGLP-1R/CRE-luciferase cell line
Conditions: GLP-1R activity; CHO-K1/hGLP-1R/CRE-luciferase cells, 9 concentrations, four hours of incubation, Bright-Glo luminescence
Protocol: 15,000 cells of a CHO-K1/hGLP-1R/CRE-luciferase cell line were seeded in a 96-well plate. A medium used herein was Ham’s F-12 Nutrient medium. The cells were incubated for 18 hours in a 5% CO2 incubator which was maintained at 37° C., and then treated with drugs. Each drug dispensed at 9 different concentrations was dissolved in a DMEM/F-12 + 1% FBS medium, and the cell line was treated with each of 100 µl thereof. After four hours of incubation, a Bright-Glo® luciferase assay system kit was used to add 30 µl of an assay reagent per well. A plate was stored at room temperature for 15 minutes, and then luminescence was measured using a SpectraMax M5 reader.

T1 sequence (P43220 24-463): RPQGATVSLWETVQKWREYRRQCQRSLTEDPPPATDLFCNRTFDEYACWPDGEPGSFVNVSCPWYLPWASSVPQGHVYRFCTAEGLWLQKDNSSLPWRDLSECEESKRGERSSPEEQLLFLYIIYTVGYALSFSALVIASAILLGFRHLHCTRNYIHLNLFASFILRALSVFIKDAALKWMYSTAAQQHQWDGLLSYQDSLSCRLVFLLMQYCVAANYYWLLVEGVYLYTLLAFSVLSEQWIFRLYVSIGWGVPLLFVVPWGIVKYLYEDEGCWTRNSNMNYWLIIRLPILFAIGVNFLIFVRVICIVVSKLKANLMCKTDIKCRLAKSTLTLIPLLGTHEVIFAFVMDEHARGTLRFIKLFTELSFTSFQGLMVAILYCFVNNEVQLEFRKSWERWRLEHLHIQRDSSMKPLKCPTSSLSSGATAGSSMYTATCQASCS

| SMILES | EC50 [nM] |
| --- | --- |
| CCn1cncc1Cn1c(Cc2ccc(-c3cccc(OCc4ccc(C#N)cc4F)n3)cc2)nc2ccc(C(=O)O)cc21 [Example 4, 2-(4-(6-((4-cyano-2-fluorobenzyl)oxy)pyridin-2-yl)benzyl)-1-((1-ethyl-1H-imidazol-5-yl)methyl)-1H-benzo[d]imidazole-6-carboxylic acid] | 0.015 |
| CCn1cncc1Cn1c(Oc2ccc(-c3cccc(OCc4ccc(C#N)cc4F)n3)cc2)nc2ccc(C(=O)O)cc21 [Example 5, 2-(4-(6-((4-cyano-2-fluorobenzyl)oxy)pyridin-2-yl)phenoxy)-1-((1-ethyl-1H-imidazol-5-yl)methyl)-1H-benzo[d]imidazole-6-carboxylic acid] | 0.016 |
| N#Cc1ccc(COc2cccc(-c3ccc(Oc4nc5ccc(C(=O)O)cc5n4C[C@@H]4CCO4)cc3)n2)c(F)c1 [Example 6, (S)-2-(4-(6-((4-cyano-2-fluorobenzyl)oxy)pyridin-2-yl)phenoxy)-1-(oxetan-2-ylmethyl)-1H-benzo[d]imidazole-6-carboxylic acid] | 21 |
| O=C(O)c1ccc2nc(Oc3ccc(-c4cccc(OCc5ccc(Cl)cc5F)n4)cc3)n(C[C@@H]3CCO3)c2c1 [Example 7, (S)-2-(4-(6-((4-chloro-2-fluorobenzyl)oxy)pyridin-2-yl)phenoxy)-1-(oxetan-2-ylmethyl)-1H-benzo[d]imidazole-6-carboxylic acid] | 0.066 |
| N#Cc1ccc(COc2cccc(-c3ccc(Oc4nc5ccc(C(=O)O)cc5n4Cc4cnco4)cc3)n2)c(F)c1 [Example 9, 2-(4-(6-((4-cyano-2-fluorobenzyl)oxy)pyridin-2-yl)phenoxy)-1-(oxazol-5-ylmethyl)-1H-benzo[d]imidazole-6-carboxylic acid] | 0.7 |
| O=C(O)c1ccc2nc(Cc3ccc(-c4cccc(OCc5ccc(Cl)cc5F)n4)cc3F)n(Cc3cnco3)c2c1 [Example 11, 2-(4-(6-((4-chloro-2-fluorobenzyl)oxy)pyridin-2-yl)-2-fluorobenzyl)-1-(oxazol-5-ylmethyl)-1H-benzo[d]imidazole-6-carboxylic acid] | 0.0746 |
| O=C(O)c1ccc2nc(Cc3ccc(-c4cccc(OCc5ccc(Cl)cc5F)n4)c(F)c3)n(C[C@@H]3CCO3)c2c1 [Example 15, (S)-2-(4-(6-((4-chloro-2-fluorobenzyl)oxy)pyridin-2-yl)-3-fluorobenzyl)-1-(oxetan-2-ylmethyl)-1H-benzo[d]imidazole-6-carboxylic acid] | 0.0035 |
| O=C(O)c1ccc2nc(Oc3ccc(-c4cccc(OCc5ccc(Cl)cc5F)n4)cc3F)n(C[C@@H]3CCO3)c2c1 [Example 17, (S)-2-(4-(6-((4-chloro-2-fluorobenzyl)oxy)pyridin-2-yl)-2-fluorophenoxy)-1-(oxetan-2-ylmethyl)-1H-benzo[d]imidazole-6-carboxylic acid] | 0.357 |
| O=C(O)c1ccc2nc(Oc3ccc(-c4cccc(OCc5ccc(Cl)cc5F)n4)cc3Cl)n(C[C@@H]3CCO3)c2c1 [Example 18, (S)-2-(2-chloro-4-(6-((4-chloro-2-fluorobenzyl)oxy)pyridin-2-yl)phenoxy)-1-(oxetan-2-ylmethyl)-1H-benzo[d]imidazol-6-carboxylic acid] | 0.438 |
| O=C(O)c1ccc2nc(Oc3c(F)cc(-c4cccc(OCc5ccc(Cl)cc5F)n4)cc3F)n(C[C@@H]3CCO3)c2c1 [Example 19, (S)-2-(4-(6-((4-chloro-2-fluorobenzyl)oxy)pyridin-2-yl)-2,6-difluorophenoxy)-1-(oxetan-2-ylmethyl)-1H-benzo[d]imidazole-6-carboxylic acid] | 1.33 |
| O=C(O)c1ccc2nc(Oc3ccc(-c4cccc(OCc5ccc(Cl)cc5F)n4)c(F)c3)n(C[C@@H]3CCO3)c2c1 [Example 20, (S)-2-(4-(6-((4-chloro-2-fluorobenzyl)oxy)pyridin-2-yl)-3-fluorophenoxy)-1-(oxetan-2-ylmethyl)-1H-benzo[d]imidazole-6-carboxylic acid] | 0.121 |
| O=C(O)c1ccc2nc(Cc3ccc(-c4cccc(OCc5ccc(C(F)(F)F)cc5F)n4)cc3)n(Cc3cnco3)c2c1 [Example 21, 2-(4-(6-((2-fluoro-4-(trifluoromethyl)benzyl)oxy)pyridin-2-yl)benzyl)-1-(oxazol-5-ylmethyl)-1H-benzo[d]imidazole-6-carboxylic acid] | 0.317 |
| O=C(O)c1ccc2nc(Cc3ccc(-c4cccc(OCc5ccc(Cl)cc5F)n4)c(Cl)c3)n(Cc3cnco3)c2c1 [Example 22, 2-(3-chloro-4-(6-((4-chloro-2-fluorobenzyl)oxy)pyridin-2-yl)benzyl)-1-(oxazol-5-ylmethyl)-1H-benzo[d]imidazole-6-carboxylic acid] | 0.635 |
| O=C(O)c1ccc2nc(Cc3ccc(-c4cccc(OCc5ccc(Cl)cc5F)n4)c(F)c3)n(Cc3cnco3)c2c1 [Example 23, 2-(4-(6-((4-chloro-2-fluorobenzyl)oxy)pyridin-2-yl)-3-fluorobenzyl)-1-(oxazol-5-ylmethyl)-1H-benzo[d]imidazole-6-carboxylic acid] | 0.061 |
| CCCn1cnnc1Cn1c(Cc2ccc(-c3cccc(OCc4ccc(Cl)cc4F)n3)cc2)nc2ccc(C(=O)O)cc21 [Example 24, 2-(4-(6-((4-chloro-2-fluorobenzyl)oxy)pyridin-2-yl)benzyl)-1-((4-propyl-4H-1,2,4-triazol-3-yl)methyl)-1H-benzo[d]imidazole-6-carboxylic acid] | 0.167 |
| CCCn1cnnc1Cn1c(Cc2ccc(-c3cccc(OCc4ccc(C(F)(F)F)cc4F)n3)cc2)nc2ccc(C(=O)O)cc21 [Example 25, 2-(4-(6-((2-fluoro-4-(trifluoromethyl)benzyl)oxy)pyridin-2-yl)benzyl)-1-((4-propyl-4H-1,2,4-triazol-3-yl)methyl)-1H-benzo[d]imidazole-6-carboxylic acid] | 0.402 |
| CCCn1cnnc1Cn1c(Cc2ccc(-c3cccc(OCc4ccc(Cl)cc4F)n3)c(Cl)c2)nc2ccc(C(=O)O)cc21 [Example 26, 2-(3-chloro-4-(6-((4-chloro-2-fluorobenzyl)oxy)pyridin-2-yl)benzyl)-1-((4-propyl-4H-1,2,4-triazol-3-yl)methyl)-1H-benzo[d]imidazole-6-carboxylic acid] | 0.775 |
| CCCn1cnnc1Cn1c(Cc2ccc(-c3cccc(OCc4ccc(Cl)cc4F)n3)c(F)c2)nc2ccc(C(=O)O)cc21 [Example 27, 2-(4-(6-((4-chloro-2-fluorobenzyl)oxy)pyridin-2-yl)-3-fluorobenzyl)-1-((4-propyl-4H-1,2,4-triazol-3-yl)methyl)-1H-benzo[d]imidazole-6-carboxylic acid] | 0.13 |

Continued, values first:

| EC50 [nM] | SMILES |
| --- | --- |
| 0.205 | O=C(O)c1ccc2nc(Cc3ccc(-c4cccc(OCc5ccc(Cl)cc5F)n4)cc3)n(CC3CCCO3)c2c1 (stereo not drawn) [Example 1, 2-(4-(6-((4-chloro-2-fluorobenzyl)oxy)pyridin-2-yl)benzyl)-1-((tetrahydrofuran-2-yl)methyl)-1H-benzo[d]imidazole-6-carboxylic acid] |
| 0.007 | O=C(O)c1ccc2nc(Cc3ccc(-c4cccc(OCc5ccc(Cl)cc5F)n4)cc3)n(C[C@@H]3CCO3)c2c1 [Example 2, (S)-2-(4-(6-((4-chloro-2-fluorobenzyl)oxy)pyridin-2-yl)benzyl)-1-(oxetan-2-ylmethyl)-1H-benzo[d]imidazole-6-carboxylic acid] |
| 0.0706 | O=C(O)c1ccc2nc(Cc3ccc(-c4cccc(OCc5ccc(Cl)cc5F)n4)cc3)n(C[C@@H]3CCCO3)c2c1 [Example 12, (S)-2-(4-(6-((4-chloro-2-fluorobenzyl)oxy)pyridin-2-yl)benzyl)-1-((tetrahydrofuran-2-yl)methyl)-1H-benzo[d]imidazole-6-carboxylic acid] |
| 2.02 | O=C(O)c1ccc2nc(Cc3ccc(-c4cccc(OCc5ccc(Cl)cc5F)n4)cc3)n(C[C@H]3CCCO3)c2c1 [Example 13, (R)-2-(4-(6-((4-chloro-2-fluorobenzyl)oxy)pyridin-2-yl)benzyl)-1-((tetrahydrofuran-2-yl)methyl)-1H-benzo[d]imidazole-6-carboxylic acid] |
| > 80 | O=C(O)c1ccc2nc(Cc3ccc(-c4cccc(OCc5ccc(Cl)cc5F)n4)cc3)n(CC3CCCCO3)c2c1 (stereo not drawn) [Example 14, 2-(4-(6-((4-chloro-2-fluorobenzyl)oxy)pyridin-2-yl)benzyl)-1-((tetrahydro-2H-pyran-2-yl)methyl)-1H-benzo[d]imidazole-6-carboxylic acid] |
| > 80 | O=C(O)c1ccc2nc(Cc3ccc(-c4cccc(OCc5ccc(C(F)(F)F)cc5F)n4)cc3)n(C[C@@H]3CCO3)c2c1 [Example 16, (S)-2-(4-(6-((2-fluoro-4-(trifluoromethyl)benzyl)oxy)pyridin-2-yl)benzyl)-1-(oxetan-2-ylmethyl)-1H-benzo[d]imidazole-6-carboxylic acid] |
| 1.12 | O=C(O)c1ccc2nc(Oc3ccc(-c4cccc(OCc5ccc(Cl)cc5F)n4)cc3)n(CC3CCCO3)c2c1 (stereo not drawn) [Example 28, 2-(4-(6-((4-chloro-2-fluorobenzyl)oxy)pyridin-2-yl)phenoxy)-1-((tetrahydrofuran-2-yl)methyl)-1H-benzo[d]imidazole-6-carboxylic acid] |
| 0.208 | O=C(O)c1ccc2nc(Cc3ccc(-c4cccc(OCc5ccc(C(F)(F)F)cc5F)n4)cc3)n(C[C@@H]3CCCO3)c2c1 [Example 29, (S)-2-(4-(6-((2-fluoro-4-(trifluoromethyl)benzyl)oxy)pyridin-2-yl)benzyl)-1-((tetrahydrofuran-2-yl)methyl)-1H-benzo[d]imidazole-6-carboxylic acid] |
| 0.0327 | O=C(O)c1ccc2nc(Cc3ccc(-c4cccc(OCc5ccc(Cl)cc5F)n4)cc3F)n(C[C@@H]3CCCO3)c2c1 [Example 30, (S)-2-(4-(6-((4-chloro-2-fluorobenzyl)oxy)pyridin-2-yl)-2-fluorobenzyl)-1-((tetrahydrofuran-2-yl)methyl)-1H-benzo[d]imidazole-6-carboxylic acid] |
